Key:
[1] = molecular target: T1, LrL-RhI (L. rhamnosus Probio-M9 L-rhamnose isomerase) (Lacticaseibacillus rhamnosus, UniProt A0A171J5T1); experiment: X-ray crystal structure of the complex (soaking), […] Å; format: binding; conditions: 30% (w/v) D-allose soak; Mn2+; crystals at pH 6.5; catalytic site; also a surface site
T1 construct: gene rhaA; full length, 426 residues, 48707 Da; synthesized gene in pQE60, C-terminal His-tag kept; E. coli JM109; homotetramer
T1 sequence (A0A171J5T1 1-426): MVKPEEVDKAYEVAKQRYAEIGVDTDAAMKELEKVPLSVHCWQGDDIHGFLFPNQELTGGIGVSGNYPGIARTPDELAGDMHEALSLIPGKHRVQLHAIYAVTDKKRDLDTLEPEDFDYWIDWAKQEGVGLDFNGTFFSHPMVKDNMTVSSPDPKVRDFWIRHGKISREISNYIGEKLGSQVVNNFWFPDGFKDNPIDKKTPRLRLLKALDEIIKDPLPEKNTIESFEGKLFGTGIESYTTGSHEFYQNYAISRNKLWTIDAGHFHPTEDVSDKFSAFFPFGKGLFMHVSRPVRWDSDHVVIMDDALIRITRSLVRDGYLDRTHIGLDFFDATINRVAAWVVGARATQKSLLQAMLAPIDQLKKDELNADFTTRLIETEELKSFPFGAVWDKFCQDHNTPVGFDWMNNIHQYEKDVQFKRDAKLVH

[2] = molecular target: T1, LrL-RhI (L. rhamnosus Probio-M9 L-rhamnose isomerase); experiment: as above; format: binding; conditions: 30% (w/v) D-allulose soak; Mn2+; crystals at pH 6.5; catalytic site; also a surface site
[3] = molecular target: the molecule itself; experiment: crystal structure; sitting-drop vapor diffusion at 20 C, 0.1 M MES pH 6.5, 15% PEG550MME; LrL-RhI alone and crystals soaked in 30% (w/v) L-rhamnose, D-allulose or D-allose; space group P212121, four molecules in the asymmetric unit

Molecule: OC[C@H]1OC(O)[C@H](O)[C@H](O)[C@@H]1O (stereo partly drawn) [D-allose]
- X-ray crystal structure of the complex (soaking), 1.71 Å [1]: The bound D-allose exhibits a pyranose form and appears to be β-D-allopyranose

Molecule: OC[C@]1(O)OC[C@@H](O)[C@@H](O)[C@H]1O [D-allulose]
- X-ray crystal structure of the complex (soaking), 1.73 Å [2]: The bound D-allulose shows a ring-opened structure.

B1: L-rhamnose isomerase from Lactobacillus rhamnosus Probio-M9 (enzyme, UniProt A0A171J5T1 1-426, looked up)
chain: T1 sequence (A0A171J5T1 1-426)
notes: L-rhamnose isomerase (putative LrL-RhI) of Lactobacillus rhamnosus Probio-M9, 426 amino acid residues, 48707 Da; also called LrL-RhI; L-RhI; not shown: His-tag, C-terminal, kept
- stoichiometry N [3]: 4
